{"source": "patent US10219728B2", "about": "“Analyte monitoring: stabilizer for subcutaneous glucose sensor with incorporated antiglycolytic agent” (Abbott Diabetes Care Inc., priority 2005, dated 2019)", "key": {"[1]": {"system": "blood clot (red blood cells adjacent to the sensor)", "test": "Glucose depletion at sensors inserted into blood clots, current response followed over time", "assay_type": "cell-based", "conditions": "sensor with approximately 138 micrograms racemic D-/L-glyceraldehyde as thin outer coating, control sensors about 2 hour", "protocol": "Glucose sensors are inserted into small silicon tubes containing the appropriate biological fluid. The tubes are maintained at about 37 degrees Celsius, and the glucose sensor is monitored.\nAntiglycolytic sensors were prepared by modification of control sensors (FREESTYLE NAVIGATOR®) as follows. A coating solution was prepared from 250 mg/mL of a racemic mixture of L-glyceraldehyde and D-glyceraldehyde, and 150 mg/mL in polymer PC-1306 (Biocompatibles, PLC), the former suspended and the latter dissolved in ethanol. The resulting antiglycolytic sensors had approximately 138 micrograms of the racemic mixture of D- and L-glyceraldehydes incorporated as a thin, outer coating. Both these sensors and control sensors (no antiglycolytic agents added) were then inserted into blood clots, and the current response was followed over time.\nThe depletion is much delayed (up to about 12 hours) in the glyceraldehydes-containing sensors."}, "[2]": {"test": "Antiglycolytic-modified sensor and control sensor implanted side by side in the arm of a non-diabetic subject", "assay_type": "in vivo", "conditions": "FREESTYLE NAVIGATOR sensor with overcoat of about 55 micrograms L-glyceraldehyde, versus control sensor", "protocol": "A further example of the use of an antiglycolytic sensor is provided by its use in an in vivo environment. In this example, a control sensor (FREESTYLE NAVIGATOR®) is inserted in the arm of a non-diabetic subject, adjacent to a similar sensor, which has been modified by the addition of an antiglycolytic agent, L-glyceraldehyde. A coating solution was made 200 mg/mL in L-glyceraldehyde, and 150 mg/mL in polymer PC-1306 (Biocompatibles, PLC), both dissolved in ethanol. The FREESTYLE NAVIGATOR® sensor was then modified by dipping twice into this coating solution, yielding an overcoat containing about 55 micrograms of L-glyceraldehyde. […] Glucose readings below 60 mg/dL are not anticipated in non-diabetic subjects, and are therefore considered to be anomalous, reflecting either (a) sensor malfunctions, or more likely (b) local inhomogeneities of glucose concentration (in the vicinity of a wound, for example) wherein the glucose concentration deviates substantially from the systemic value. Such deviations are observed with some regularity in control sensors, but are not observed in sensors modified with L-glyceraldehyde."}, "[3]": {"conditions": "50 mg/ml boric acid with 150 mg/ml L-glyceraldehyde and 150 mg/mL PC in outer membrane, stress at 56° C. for nine days, nonheparin blood", "protocol": "An example of the use of an antiglycolytic sensor containing borate minerals, boric acid or any precursor thereof, is provided by its testing in an in vitro environment. 50 mg/ml boric acid was mixed with 150 mg/ml L-glyceraldehyde and 150 mg/mL PC in 100% ethanol. The sensor was dipped three times with a 10 minute interval. The sensor was then cured overnight, and subjected to stress at 56° C. for nine days and subsequently tested in nonheparin blood."}}, "note": "Like-named read-outs stand apart in the source and are kept apart here.", "data": [{"molecule": "O=CC(O)CO", "note": "(racemic) [glyceraldehydes, racemic mixture of L-glyceraldehyde and D-glyceraldehyde]", "values": [{"measurement": "glucose depletion period", "setting": "[1]", "value": "up to 12 hours"}]}, {"molecule": "O=C[C@@H](O)CO", "note": "[L-glyceraldehyde]", "values": [{"measurement": "large negative deviation in signal (values well below 60 mg/dL) during the night", "setting": "[2]", "value": "not observed"}]}, {"molecule": "OB(O)O", "note": "[boric acid]", "values": [{"measurement": "high background current after stress", "setting": "[3]", "value": "significantly reduced"}, {"measurement": "high background current after stress", "setting": "[3]; listed as borate", "value": "reduced significantly"}]}]}
